Reference: patent US12582619B2 (priority 2020, dated 2026)
“Also recorded” adds a separate entry of the source.

Legend:
[1] = tested on: Zika Virus; test: Zika virus infection of U2OS cells, qPCR; format: cell-based; conditions: MOI 1, ~16-18 hours, CT110 10 μM, CT1107 2.5-10 μM, FIG. 11
Description: (§1) U2OS cells were treated with DMSO or 10 μM of CT110 (also known as CT189, left graph) or DMSO or 2.5 μM, 5 μM, 7.5 μM, and 10 μM CT1107 (right graph). 2 hours after starting treatment, U2OS cells were infected with a multiplicity of infection (MOI) of 1 for Zika Virus and incubated at 37° C. for ˜16-18 hours. Cells were harvested with Trizol and RNA was extracted for qPCR. Y-axis indicates fold change in infection.

[2] = target: T1, Androgen Receptor (Homo sapiens, UniProt P10275)
T1 sequence (P10275 1-920): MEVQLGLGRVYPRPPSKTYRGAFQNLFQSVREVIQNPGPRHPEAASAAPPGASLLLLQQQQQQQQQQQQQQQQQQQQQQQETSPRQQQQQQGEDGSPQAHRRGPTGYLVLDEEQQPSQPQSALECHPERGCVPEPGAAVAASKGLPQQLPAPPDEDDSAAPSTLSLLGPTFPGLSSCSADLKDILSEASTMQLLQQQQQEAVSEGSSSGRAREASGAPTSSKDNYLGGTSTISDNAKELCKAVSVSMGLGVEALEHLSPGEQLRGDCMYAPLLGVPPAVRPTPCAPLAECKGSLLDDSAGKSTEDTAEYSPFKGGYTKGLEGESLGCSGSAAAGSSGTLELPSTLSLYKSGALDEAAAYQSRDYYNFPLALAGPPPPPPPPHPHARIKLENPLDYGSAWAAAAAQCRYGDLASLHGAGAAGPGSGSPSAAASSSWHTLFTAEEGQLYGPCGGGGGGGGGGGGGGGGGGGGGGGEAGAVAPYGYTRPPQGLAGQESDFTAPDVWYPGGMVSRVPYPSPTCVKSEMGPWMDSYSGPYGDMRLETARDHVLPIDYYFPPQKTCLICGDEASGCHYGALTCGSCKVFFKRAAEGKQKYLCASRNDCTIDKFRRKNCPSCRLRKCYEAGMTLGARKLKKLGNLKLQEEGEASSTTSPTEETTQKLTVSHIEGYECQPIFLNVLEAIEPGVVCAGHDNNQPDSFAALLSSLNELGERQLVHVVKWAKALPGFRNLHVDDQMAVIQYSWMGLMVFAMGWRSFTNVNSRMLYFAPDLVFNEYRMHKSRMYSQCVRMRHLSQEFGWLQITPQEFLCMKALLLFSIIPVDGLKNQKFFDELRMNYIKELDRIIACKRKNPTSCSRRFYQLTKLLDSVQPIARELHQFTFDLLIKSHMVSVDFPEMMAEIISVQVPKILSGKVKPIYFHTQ

[3] = tested on: SARS-CoV-2; test: Infection of Huh7.5 cells by replication competent SARS-CoV-2, qRT-PCR; format: cell-based; conditions: 10 μM, 24 hours post inoculation
Description: FIG. 3 illustrates the finding that only certain Sigma1 inhibitors block SARS-CoV-2 infection. […] Results can be compared to vehicle (DMSO), Remdesivir (Rem, 10 μM), and hydroxychloroquine (HCQ, 10 μM). Compounds and SARS-CoV-2 were added to cell culture; 24 hours post inoculation relative infection calculated by qRT-PCR.
A discrete set of Sigma1 modulators was tested in an assay of replication competent SARS-CoV-2 infectivity. […] Strikingly, IPAG, CT189, and CT1107 blocked SARS-CoV-2 infection by 1,000 (IPAG, CT189, CT360) to 10,000 (CT1107) fold.

[4] = tested on: Dengue Virus; test: Dengue virus infection of U2OS cells, qPCR; format: cell-based; conditions: MOI 1, ~16-18 hours, CT110 10 μM, CT1107 2.5-10 μM, FIG. 10
Description: as §1, with “Dengue” for “Zika”

[5] = tested on: Powassan Virus; format: cell-based; conditions: U2OS, MOI 1, ~16-18 hours; CT110 10 μM, CT1107 2.5-10 μM, FIG. 12
[6] = target: Sigma1 (Homo sapiens, UniProt Q99720); test: Sigma1 binding, Ki
[7] = target: T1, Androgen Receptor; test: cell-based
[8] = tested on: Vero E6 cells expressing SARS-CoV-2 spike and human TMPRSS2; format: cell-based; conditions: Vero E6, 10 μM vs DMSO
[9] = tested on: VeroE6 cells stably expressing TMPRSS2; test: Toxicity in VeroE6/TMPRSS2 cells; format: cell-based; conditions: VeroE6/TMPRSS2 cells, 5, 7.5, 10 μM
Description: (§2) It was tested whether Sigma1-targeting compounds are antiviral in additional cell lines. VeroE6 cells stably expressing TMPRSS2and Caco-2 (human colorectal epithelial cells) were tested. […] In certain embodiments, these compounds are antiviral in primary respiratory epithelial cells.

[10] = tested on: Caco-2 (human colorectal epithelial cells); test: Toxicity in Caco-2 cells; format: cell-based; conditions: Caco-2 cells, 5, 7.5, 10 μM
Description: as §2

[11] = tested on: human TMPRSS2; format: cell-based; conditions: Vero E6 lysates, 10 μM, FIG. 7
[12] = tested on: SARS-CoV-2; test: SARS-CoV-2 infection of Caco2 cells, qRT-PCR; format: cell-based; conditions: Caco2 cells, 5, 7.5, 10 μM, 48 hours, FIG. 8
Description: (§3) FIG. 8 illustrates results obtained when VeroE6/TMPRSS2 or Caco2 cells were treated with DMSO or 5 μM, 7.5 μM, and 10 μM CT1107 and infected with SARS-CoV-2 for 48 hours. RNA was isolated and qRT-PCR was performed with virus-specific and 18S primers. Viral RNA was normalized to 18S RNA.
as §2

[13] = tested on: SARS-CoV-2; test: SARS-CoV-2 infection of VeroE6/TMPRSS2 cells, qRT-PCR; format: cell-based; conditions: VeroE6/TMPRSS2 cells, 5, 7.5, 10 μM, 48 hours, FIG. 8
Description: as §3, §2

[14] = tested on: TMPRSS2 mRNA transcript; test: TMPRSS2 transcript levels in LNCaP cells; conditions: 10 μM, FIG. 1B

Sigma1, sequence (Q99720 whole entry): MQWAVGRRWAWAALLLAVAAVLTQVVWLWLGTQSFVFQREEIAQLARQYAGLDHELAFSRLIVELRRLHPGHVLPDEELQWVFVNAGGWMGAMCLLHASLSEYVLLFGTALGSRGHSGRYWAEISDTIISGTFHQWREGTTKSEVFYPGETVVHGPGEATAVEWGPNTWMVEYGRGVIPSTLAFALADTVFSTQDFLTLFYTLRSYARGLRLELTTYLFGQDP

Compound	effect on SARS-CoV-2 infection (in words) ([3]; FIG. 3)	Ki [6] [µM]	IC50 [7] [µM]	other results
N=C(NCCCOc1ccc(F)cc1)Nc1ccc(Cl)cc1 [CT189]	suppressed SARS-CoV-2 infection; also recorded: inhibit SARS-CoV-2 infection	–	–	Zika virus infection (fold change in infection) [1]: inhibit Zika virus infection; dihydrotesterone (DHT) induced AR transcriptional activity [2]: inhibition; blocked SARS-CoV-2 infection, fold ([3]; FIG. 3): 1,000 fold; Dengue virus infection (fold change in infection) [4]: inhibit dengue virus infection; Powassan virus infection (fold change in infection) [5]: inhibit Powassan virus infection
COc1cc(NC(=N)NCCC(C)(C)Oc2ccc(C(F)(F)F)cc2)cnc1C#N [Compound A, 1-(6-cyano-5-methoxypyridin-3-yl)-3-(3-methyl-3-(4-(trifluoromethyl)phenoxy)butyl)guanidine]	–	0.009	8.1	–
COc1cc(NC(=N)NCC(C)(C)COc2ccc(C(F)(F)F)cc2)cnc1C#N [Compound B, 1-(6-cyano-5-methoxypyridin-3-yl)-3-(2,2-dimethyl-3-(4-(trifluoromethyl)phenoxy)propyl)guanidine]	–	0.006	10	–
CC(C)(CCNC(=N)Nc1ccc(Cl)c(Cl)c1)Oc1ccc(C(F)(F)F)cc1 [Compound D, 1-(3,4-dichlorophenyl)-3-(3-methyl-3-(4-(trifluoromethyl)phenoxy)butyl)guanidine]	–	0.008	3	–
CC(C)(CCNC(=N)Nc1cnc(Cl)c(F)c1)Oc1ccc(C(F)(F)F)cc1 [Compound E, 1-(6-chloro-5-fluoropyridin-3-yl)-3-(3-methyl-3-(4-(trifluoromethyl)phenoxy)butyl)guanidine]	–	0.005	5	–
COc1cc(NC(=N)NCCC(C)(C)c2ccc(C(F)(F)F)cc2)ncc1C#N [Compound F, 1-(5-cyano-4-methoxypyridin-2-yl)-3-(3-methyl-3-(4-(trifluoromethyl)phenyl)butyl)guanidine]	–	0.011	3	number of syncytia ([8]; FIG. 5): significant decrease; size of syncytia (number of nuclei per syncytia) ([8]; FIG. 6): significant decrease; toxicity [9]: without toxicity; Zika virus infection (fold change in infection) [1]: inhibit Zika virus infection; toxicity [10]: without toxicity; TMPRSS2 protein level [11]: clear decrease; antiviral effect on SARS-CoV-2 [12]: potently antiviral; blocked SARS-CoV-2 infection, fold ([3]; FIG. 3): 10,000 fold; effect on SARS-CoV-2 infection (in words) ([3]; FIG. 3, listed as CT1107): suppressed SARS-CoV-2 infection; also recorded: inhibit SARS-CoV-2 infection; also recorded: most potent inhibitor of CoV-2 infection; Dengue virus infection (fold change in infection) [4]: inhibit dengue virus infection; Powassan virus infection (fold change in infection) [5]: inhibit Powassan virus infection; antiviral effect on SARS-CoV-2 [13]: potently antiviral
COC(=O)c1ccc(NC(=N)NCCC(C)(C)c2ccc(C(F)(F)F)cc2)nc1 [Compound G, methyl 6-(3-(3-methyl-3-(4-(trifluoromethyl)phenyl)butyl)guanidino)nicotinate]	–	0.003	2.8	–
COC(=O)c1ccc(NC(=N)NCC(C)(C)COc2ccc(C(F)(F)F)cc2)nc1 [Compound H, methyl 6-(3-(2,2-dimethyl-3-(4-(trifluoromethyl)phenoxy)propyl)guanidino)nicotinate]	inhibit SARS-CoV-2 infection	0.018	2.9	blocked SARS-CoV-2 infection, fold ([3]; FIG. 3): 1,000 fold
CC(C)(CCNC(=N)Nc1cnc(C(F)(F)F)nc1)Oc1ccc(C(F)(F)F)cc1 [Compound I, 1-(3-methyl-3-(4-(trifluoromethyl)phenoxy)butyl)-3-(2-(trifluoromethyl)pyrimidin-5-yl)guanidine]	–	0.035	10.5	–
COc1cc(NC(=N)NCCC(C)(C)Oc2ccc(C(F)(F)F)cc2)cnc1C#N [Compound J, 1-(6-cyano-5-methoxypyridin-3-yl)-3-(3-methyl-3-(4-(trifluoromethyl)phenoxy)butyl)guanidine]	–	0.007	8.5	–
Cc1cc(OCCN2CCOCC2)nn1-c1ccc2ccccc2c1 [Compound S1RA, 4-[2-[[5-methyl-1-(2-naphthalenyl)-1H-pyrazol-3-yl]oxy]ethyl]morpholine, reference compound]	did not block infection; also recorded: does not block infection	–	–	–
N=C(Nc1ccc(I)cc1)NC1C2CC3CC(C2)CC1C3 (centres unmarked) [IPAG, reference compound]	suppressed SARS-CoV-2 infection; also recorded: inhibit SARS-CoV-2 infection	–	–	TMPRSS2 transcript [14]: decreased; dihydrotesterone (DHT) induced AR transcriptional activity [2]: inhibition; blocked SARS-CoV-2 infection, fold ([3]; FIG. 3): 1,000 fold
O=C(OCCN1CCOCC1)C1(c2ccccc2)CCCCC1 [PRE084, 2-morpholin-4-ylethyl 1-phenylcyclohexane-1-carboxylate, reference compound]	did not block infection	–	–	–
COc1ccc(CCN2CCN(CCCc3ccccc3)CC2)cc1OC [SA4503, 1-(3,4-dimethoxyphenethyl)-4-(3-phenylpropyl) piperazine, reference compound]	did not block infection	–	–	–
O=C(CCCN1CCC(O)(c2ccc(Cl)cc2)CC1)c1ccc(F)cc1 [haloperidol, 4-[4-(4-chlorophenyl)-4-hydroxypiperidin-1-yl]-1-(4-fluorophenyl)butan-1-one, reference compound]	suppressed SARS-CoV-2 infection	–	–	effect on SARS-CoV-2 infection (in words) ([3]; FIG. 3, listed as Haloperidol): clear but modest antiviral effect
